In US10550143B2, “C,O-spiro aryl glycoside compounds, preparation therefor and use thereof” (SHANGHAI INSTITUTE OF MATERIA MEDICA, CHINESE ACADEMY OF …, priority 2015, dated 2020):

Legend:
[1] = system: SD rats; test: Acute administration of A28 at multiple doses, glucose tolerance of SD rats; type: in vivo, rat; conditions: SD rats OGTT; for Blood glucose level 0: before sugar
Procedure: (1) 80 SD rats were selected and starved overnight, took water freely, then randomly divided into 10 groups according to body weight and random blood glucose, 8 rats in each group. […] 1 h after oral gavage, 3 g/kg of glucose was orally administered to each group except blank control group, and the blood glucose level was monitored before the sugar administration, and at 15, 30, 60, 90 and 120 minutes after the sugar administration.
Average hypoglycemic rate %=(AUC0-120 min of solvent control group−AUC0-120 min of administration group)/(AUC0-120 min of solvent control group−AUC0-120 min of blank control group)*100%

[2] = system: db/db mice; test: Chronic administration, glycosylated hemoglobin level in db/db mice; type: in vivo, mouse; conditions: for HbA1c Decline rate %: vs vehicle
Procedure: (§1) Oral gavage administrated, daily dose volume was 10 mL/kg, administered once daily. Administration time was 9: 00-10:00 daily, and the administration period was 5 weeks.
In the end of the above experiment, the orbital blood was taken from animals of each group and divided into two tubes, one was centrifuged to take blood cells for the determination of glycated hemoglobin content, the other tube was added with 25 μL EDTA in advance, centrifuged and the supernatant was taken to determine the indexes such as triglyceride (TG), total cholesterol (TC), total protein (TP), albumin, low density lipoprotein (LDL), high density lipoprotein (HDL), non-esterified fatty acid (NEFA) and so on.

[3] = system: SD rats; test: Acute administration of A28 at multiple doses, urinary glucose of SD rats; type: in vivo, rat; conditions: within 24 h
Procedure: (1) 72 normal male SD rats were selected and randomly divided into 9 groups according to body weight and blood glucose, 8 in each group. […] After oral gavage, the rats were placed in rats metabolic cages, and urine was collected after 24 h, and the urine volume was recorded, then preserved under −20° C. Rats take food and water freely during the experimental period.
(2) Index Determination: Glucose levels in urine are measured by the glucose assay kit.

[4] = system: C57BL/6J mice; test: Acute administration of A28 at multiple doses, oral glucose tolerance of C57BL/6J mice; type: in vivo, mouse; conditions: C57BL/6J mice OGTT; for Blood glucose level 0: before sugar
Procedure: (1) Experimental Methods: 56 C57BL/6J mice were selected and starved for 6 h, took water freely, then randomly divided into 7 groups according to body weight and random blood glucose, 8 rats in each group. […] Average hypoglycemic rate %=(AUC0-120 min of solvent control group−AUC0-120 min of administration group)/(AUC0-120 min of solvent control group−AUC0-120 min of blank control group)*100%

[5] = system: db/db mice; test: Chronic administration, glucose-stimulated insulin release in db/db mice; type: in vivo, mouse; conditions: glucose-stimulated insulin release, chronic administration
Procedure: as §1
The fourth week after administration, the mice were starved for 6 hours after morning administration and were orally administrated with glucose (1.5 g/kg), and blood was collected from the tail (10 μL EDTA+20 μL tail blood). Centrifuged and the supernatant was taken, stored at −20° C. for insulin test.

## CCOc1ccc(Cc2cc([C@@H]3O[C@H](CO)[C@@H](O)[C@H](O)[C@H]3O)ccc2Cl)cc1 [Dapa]
[1]; oral 1 mg/kg
  AUC0-2 h: 16.6 ± 1.2 mmol·h/L
  Average hypoglycemic rate % (0-2 h): 35.1%
  Blood glucose level 15 min: 6.6 ± 0.7 mmol/L
  Blood glucose level 30 min: 7.8 ± 0.9 mmol/L
  Blood glucose level 60 min: 9.4 ± 1.1 mmol/L
  Blood glucose level 90 min: 9.5 ± 1.0 mmol/L
  Blood glucose level 120 min: 7.9 ± 1.3 mmol/L
  Blood glucose level 0: 4.9 ± 0.4 mmol/L
[1]; oral 3 mg/kg
  AUC0-2 h: 14.9 ± 1.0 mmol·h/L
  Average hypoglycemic rate % (0-2 h): 51.5%
  Blood glucose level 15 min: 4.7 ± 0.2 mmol/L
  Blood glucose level 30 min: 6.9 ± 1.0 mmol/L
  Blood glucose level 60 min: 8.6 ± 1.0 mmol/L
  Blood glucose level 90 min: 8.6 ± 1.3 mmol/L
  Blood glucose level 120 min: 8.3 ± 1.2 mmol/L
  Blood glucose level 0: 4.0 ± 0.6 mmol/L
[2]; dose 1 mg/kg
  HbA1c (%): 5.79 ± 0.32 %
  HbA1c Decline rate %: 23.7%
[2]; dose 3 mg/kg
  HbA1c (%): 5.32 ± 0.26 %
  HbA1c Decline rate %: 29.9%
[3]; oral 1 mg/kg
  Total sugar excretion: 706.69 ± 39.98 mg/100 g
  Urine concentration: 313.13 ± 16.92 mmol/L
  Urine volume: 31.38 ± 1.99 mL
[3]; oral 3 mg/kg
  Total sugar excretion: 859.30 ± 41.55 mg/100 g
  Urine concentration: 327.16 ± 24.63 mmol/L
  Urine volume: 36.88 ± 1.55 mL
[4]; oral 0.3 mg/kg
  AUC0-2 h: 20.9 ± 1.6 mmol·h/L
  Average hypoglycemic rate % (0-2 h): 4.9%
  Blood glucose level 15 min: 13.4 ± 2.3 mmol/L
  Blood glucose level 30 min: 12.1 ± 1.0 mmol/L
  Blood glucose level 60 min: 10.6 ± 1.0 mmol/L
  Blood glucose level 90 min: 9.3 ± 1.1 mmol/L
  Blood glucose level 120 min: 8.8 ± 0.8 mmol/L
  Blood glucose level 0: 7.1 ± 0.4 mmol/L
[4]; oral 1 mg/kg
  AUC0-2 h: 19.3 ± 1.3 mmol·h/L
  Average hypoglycemic rate % (0-2 h): 12.4%
  Blood glucose level 15 min: 12.3 ± 1.1 mmol/L
  Blood glucose level 30 min: 12.0 ± 1.1 mmol/L
  Blood glucose level 60 min: 9.1 ± 1.1 mmol/L
  Blood glucose level 90 min: 8.4 ± 0.9 mmol/L
  Blood glucose level 120 min: 8.5 ± 0.9 mmol/L
  Blood glucose level 0: 6.5 ± 0.9 mmol/L
[4]; oral 3 mg/kg
  AUC0-2 h: 18.2 ± 1.6 mmol·h/L
  Average hypoglycemic rate % (0-2 h): 17.5%
  Blood glucose level 15 min: 11.6 ± 0.9 mmol/L
  Blood glucose level 30 min: 11.6 ± 1.1 mmol/L
  Blood glucose level 60 min: 8.9 ± 1.4 mmol/L
  Blood glucose level 90 min: 7.9 ± 1.1 mmol/L
  Blood glucose level 120 min: 7.0 ± 0.6 mmol/L
  Blood glucose level 0: 6.1 ± 1.0 mmol/L
[5]; dose 1 mg/kg
  Insulin AUC: 27.89 ± 3.63
  Insulin (ng/ml) 0 min: 12.92 ± 1.17 ng/mL
  Insulin (ng/ml) 15 min: 35.99 ± 5.34 ng/mL
  Insulin (ng/ml) 30 min: 29.85 ± 4.97 ng/mL
  Insulin (ng/ml) 60 min: 24.33 ± 2.90 ng/mL
  Insulin (ng/ml) pre: 8.05 ± 1.10 ng/mL
[5]; dose 3 mg/kg
  Insulin AUC: 22.69 ± 2.89
  Insulin (ng/ml) 0 min: 8.41 ± 1.07 ng/mL
  Insulin (ng/ml) 15 min: 21.29 ± 3.11 ng/mL
  Insulin (ng/ml) 30 min: 22.60 ± 3.22 ng/mL
  Insulin (ng/ml) 60 min: 31.36 ± 5.44 ng/mL
  Insulin (ng/ml) pre: 8.15 ± 0.91 ng/mL
